Source: US10717757B2, “Ketolides having antibacterial activity” (BIOPHARMATI SA, priority 2016, dated 2020)
Values after ≈ are worked out from the molar mass of the structure shown. Like-named read-outs stand apart in the source and are kept apart here.

Columns and labels:
[1] = test system: S. pneumoniae AUCC483, macrolide resistant & penicillin sensitive; assay: Minimum inhibitory concentration (MIC), broth microdilution, AUCC483; assay type: cell-based, Streptococcus pneumoniae
Description: (§1) Protocols for Determining Minimum Inhibitory Concentration (MIC) of Test Compounds Against Streptococcus Pneumoniae Strains
(§2) The test strains are revived from frozen stock on blood agar plates and incubated at 35±2° C. for 18-20 hours in 5% CO2. Colonies are directly suspended from an overnight grown agar culture in CAMHB/saline and optical density adjusted to 0.5 McFarland turbidity standard (1-2×10^8 cfu/mL). Adjusted cultures are further diluted 1:100 using CAMHB such that after inoculation each well finally contains ˜5×10^5 cfu/mL. For broth dilution testing of Streptococcus species, CAMHB is supplemented with 2.5-5% v/v LHB. Colony counts of inoculum suspension is estimated by ten-fold serial dilutions and plating each dilution on agar plate. After incubation, the plates are observed for growth and microbial counts determined.
(§3) Compounds are weighed and dissolved in water/DMSO/other solvent to yield 1 mg/mL stock solution. Serial two-fold dilutions of the test compounds and reference antibiotics are prepared. 50 μL of the diluted drug solutions are dispensed in wells of microtiter trays (96 well).
(§4) To each of the wells of the microtiter tray, 50 μL of the diluted organism are inoculated to obtain a final inoculum density of ˜5×10^5 cfu/mL. Broth control, compound control and organism control wells are set up.
(§5) MIC testing are done in duplicates
(§6) MIC is defined as the lowest concentration of an antimicrobial agent that prevents visible growth of a microorganism in broth dilution susceptibility test.
(§7) After incubation period, growth of organism in the wells are detected by unaided eye facilitated by a viewing device. The amount of growth in the drug-containing wells are compared with the amount of growth in the organism-control wells.

[2] = test system: S. pneumoniae AUCC489, macrolide & penicillin resistant; assay: Minimum inhibitory concentration (MIC), broth microdilution, AUCC489; assay type: cell-based, Streptococcus pneumoniae
Description: as §1, §2, §3, §4, §5, §6, §7

[3] = test system: S. pneumoniae AUCC479, macrolide & penicillin sensitive; assay: Minimum inhibitory concentration (MIC), broth microdilution, AUCC479; assay type: cell-based, Streptococcus pneumoniae
Description: as §1, §2, §3, §4, §5, §6, §7

[4] = test system: S. pneumoniae ATCC 49619 (CLSI QC strain); assay: Minimum inhibitory concentration (MIC), broth microdilution, QC strain; assay type: cell-based, Streptococcus pneumoniae; details: MIC in duplicates
Description: as §1, §2, §3, §4, §5, §6, §7

[5] = test system: S. pneumoniae AUCC488, macrolide & penicillin resistant; assay: Minimum inhibitory concentration (MIC), broth microdilution, AUCC488; assay type: cell-based, Streptococcus pneumoniae
Description: as §1, §2, §3, §4, §5, §6, §7

[6] = target: CYP3A4 (Homo sapiens, UniProt P08684); assay: Cytochrome P4503A4 inhibition assay, human liver microsomes, LC-MS/MS probe substrate method; details: for IC50: human liver microsomes 0.1 mg/mL, 10 min; for CYP3A4 inhibition in comparison with solithromycin and ketoconazole: summary of Table 1
Description: Cytochrome P4503A4 Inhibition Assay for Determining IC50
The potential of the compound to inhibit CYP 3A4 was tested by the LC-MS/MS based probe substrate method using human liver microsomes. Midazolam or testosterone, which are metabolized to hydroxymidazolam or hydroxytestosterone by CYP 3A4, were the probe substrates used. […] NADPH was added as the cofactor. […] After incubation for ten minutes, the amount of 1-hydroxymidazolam or 6β-hydroxyltestosterone formed was determined by LC-MS/MS method as a measure of enzyme activity. Percent inhibition of enzyme activity was calculated based on the amount of metabolites (1-hydroxymidazolam or 6β-hydroxyltestosterone) formed for each sample relative to the basal control and plotted in a curve versus the compound concentration to obtain the IC50.

[7] = read-out: IC50 CYP3A4 (midazolam), 5 μM midazolam
[8] = read-out: IC50 CYP3A4 (testosterone), 50 μM testosterone

CYP3A4, sequence (P08684 whole entry): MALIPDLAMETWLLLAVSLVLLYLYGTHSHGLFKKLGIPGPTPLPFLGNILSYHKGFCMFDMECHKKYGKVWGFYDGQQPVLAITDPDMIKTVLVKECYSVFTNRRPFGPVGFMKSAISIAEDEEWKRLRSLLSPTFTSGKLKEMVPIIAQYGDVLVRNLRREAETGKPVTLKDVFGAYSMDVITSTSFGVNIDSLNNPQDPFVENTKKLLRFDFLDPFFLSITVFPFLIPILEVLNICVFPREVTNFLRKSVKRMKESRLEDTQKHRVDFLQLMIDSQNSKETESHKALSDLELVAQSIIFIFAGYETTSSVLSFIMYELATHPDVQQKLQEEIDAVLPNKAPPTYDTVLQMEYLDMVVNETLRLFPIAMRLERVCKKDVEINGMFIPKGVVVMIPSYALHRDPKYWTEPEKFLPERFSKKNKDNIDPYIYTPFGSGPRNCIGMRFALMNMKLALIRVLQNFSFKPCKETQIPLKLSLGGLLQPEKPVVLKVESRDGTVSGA

`CC[C@H]1OC(=O)[C@H](C)C(=O)[C@H](C)[C@@H](O[C@@H]2O[C@H](C)C[C@H](N(C)C)[C@H]2O)[C@](C)(OC/C=C/c2cnc3ccccc3c2)C[C@@H](C)C(=O)[C@H](C)[C@H]2N(CCOC)C(=O)O[C@]12C` [Compound 13E, (3aS,4R,7R,9R,10R,11R,13R,15R,15aR)-10-{[(2S,3R,4S,6R)-4-(dimethylamino)-3-hydroxy-6-methyloxan-2-yl]oxy}-4-ethyl-1-(2-methoxyethyl)-3a,7,9,11,13,15-hexamethyl-11-{[(2E)-3-(quinolin-3-yl)prop-2-en-1-yl]oxy}-tetradecahydro-1H-oxacyclotetradeca[4,3-d][1,3]oxazole-2,6,8,14-tetrone] was tested, and the “MIC Strep. Pneumoniae AUCC 483 penS, macR cMLS” value [1] was greater than 4 µg/mL, the “MIC Strep. Pneumoniae AUCC 489 penR, macR cMLS” value [2] was greater than 4 µg/mL and the “MIC Strep. Pneumoniae AUCC 479 penS, macS” value [3] was 0.03 to 0.06 µg/mL. For the same molecule, the “MIC Strep. Pneumoniae ATCC49619 QC strain” value [4] was 0.06 to 0.12 µg/mL and the “MIC Strep. Pneumoniae AUCC 488 penR, macR M or iMLS” value (shortened to “MIC Strep. Pneumoniae AUCC 488 penR”) [5] was 0.25 to 0.5 µg/mL.
For `CC[C@H]1OC(=O)[C@H](C)C(=O)[C@H](C)[C@@H](O[C@@H]2O[C@H](C)C[C@H](N(C)C)[C@H]2O)[C@](C)(OC/C=C/c2cnc3ccccc3c2)C[C@@H](C)C(=O)[C@H](C)[C@H]2N(CC#N)C(=O)O[C@]12C` [Compound 13H, 2-[(3aS,4R,7R,9R,10R,11R,13R,15R,15aR)-10-{[(2S,3R,4S,6R)-4-(dimethylamino)-3-hydroxy-6-methyloxan-2-yl]oxy}-4-ethyl-3a,7,9,11,13,15-hexamethyl-2,6,8,14-tetraoxo-11-{[(2E)-3-(quinolin-3-yl)prop-2-en-1-yl]oxy}-tetradecahydro-1H-oxacyclotetradeca[4,3-d][1,3]oxazol-1-yl]acetonitrile], the “MIC Strep. Pneumoniae AUCC 483 penS, macR cMLS” value [1] was 2 to 4 µg/mL, the “MIC Strep. Pneumoniae AUCC 489 penR, macR cMLS” value [2] was 0.25 to 1 µg/mL and the IC50 [6, 7] was 1.9 µM. The “CYP3A4 inhibition in comparison with solithromycin and ketoconazole” value (“CYP3A4 inhibition in comparison” below) [6] was “lower IC50 inhibition of CYP3A4 inhibition”, the “MIC Strep. Pneumoniae AUCC 479 penS, macS” value [3] was 0.008 to 0.015 µg/mL and the “MIC Strep. Pneumoniae ATCC49619 QC strain” value [4] was 0.03 to 0.06 µg/mL. For the same molecule, the “MIC Strep. Pneumoniae AUCC 488 penR” value [5] was 0.25 to 1 µg/mL.
In the case of `CC[C@H]1OC(=O)[C@H](C)C(=O)[C@H](C)[C@@H](O[C@@H]2O[C@H](C)C[C@H](N(C)C)[C@H]2O)[C@](C)(OC/C=C/c2cnc3ccccc3c2)C[C@@H](C)C(=O)[C@H](C)[C@H]2N(CC3CCN(C)CC3)C(=O)O[C@]12C` [Compound 13L, (3aS,4R,7R,9R,10R,11R,13R,15R,15aR)-10-{[(2S,3R,4S,6R)-4-(dimethylamino)-3-hydroxy-6-methyloxan-2-yl]oxy}-4-ethyl-3a,7,9,11,13,15-hexamethyl-1-[(1-methylpiperidin-4-yl)methyl]-11-{[(2E)-3-(quinolin-3-yl)prop-2-en-1-yl]oxy}-tetradecahydro-1H-oxacyclotetradeca[4,3-d][1,3]oxazole-2,6,8,14-tetrone], the “MIC Strep. Pneumoniae AUCC 483 penS, macR cMLS” value [1] is reported as 0.5 to 1 µg/mL, the “MIC Strep. Pneumoniae AUCC 489 penR, macR cMLS” value [2] is reported as 0.5 to 1 µg/mL and the IC50 [6, 7] is reported as 6.3 µM. The “CYP3A4 inhibition in comparison” value [6] was “lower IC50 inhibition of CYP3A4 inhibition”, the “MIC Strep. Pneumoniae AUCC 479 penS, macS” value [3] was 0.03 µg/mL (≈ 0.0342 µM) and the “MIC Strep. Pneumoniae ATCC49619 QC strain” value [4] was 0.06 µg/mL (≈ 0.0684 µM). The “MIC Strep. Pneumoniae AUCC 488 penR” value [5] was 0.5 to 1 µg/mL.
In the case of `CCC1OC(=O)C(C)C(=O)C(C)C(OC2OC(C)CC(N(C)C)C2O)C(C)(OCC=Cc2cnc3ccccc3c2)CC(C)C(=O)C(C)C2N(CC3CCN(C)C3)C(=O)OC12C` [Compound 13N, (3aS,4R,7R,9R,10R,11R,13R,15R,15aR)-10-{[(2S,3R,4S,6R)-4-(dimethylamino)-3-hydroxy-6-methyloxan-2-yl]oxy}-4-ethyl-3a,7,9,11,13,15-hexamethyl-1-{[(3S)-1-methylpyrrolidin-3-yl]methyl}-11-{[(2E)-3-(quinolin-3-yl)prop-2-en-1-yl]oxy}-tetradecahydro-1H-oxacyclotetradeca[4,3-d][1,3]oxazole-2,6,8,14-tetrone], the “MIC Strep. Pneumoniae AUCC 483 penS, macR cMLS” value [1] is reported as 0.5 to 1 µg/mL, the “MIC Strep. Pneumoniae AUCC 489 penR, macR cMLS” value [2] is reported as 0.5 to 1 µg/mL and the IC50 [6, 8] is reported as 7.7 µM. The “CYP3A4 inhibition in comparison” value [6] was “lower IC50 inhibition of CYP3A4 inhibition”, the “MIC Strep. Pneumoniae AUCC 479 penS, macS” value [3] was 0.03 µg/mL (≈ 0.0348 µM) and the “MIC Strep. Pneumoniae ATCC49619 QC strain” value [4] was 0.03 to 0.06 µg/mL. For the same molecule, the “MIC Strep. Pneumoniae AUCC 488 penR” value [5] was 0.5 to 1 µg/mL.
In the case of `CC[C@H]1OC(=O)[C@H](C)[C@@H](O[C@H]2C[C@@](C)(OC)[C@@H](O)[C@H](C)O2)[C@H](C)[C@@H](O[C@@H]2O[C@H](C)C[C@H](N(C)C)[C@H]2O)[C@](C)(O)C[C@@H](C)C(=O)[C@H](C)[C@@H](O)[C@]1(C)O` [erythromycin, reference compound], the “MIC Strep. Pneumoniae AUCC 483 penS, macR cMLS” value [1] is reported as 64 µg/mL (≈ 87.2 µM), the “MIC Strep. Pneumoniae AUCC 489 penR, macR cMLS” value [2] is reported as 8 to 32 µg/mL and the “MIC Strep. Pneumoniae AUCC 479 penS, macS” value [3] is reported as 0.03 to 0.06 µg/mL. For the same molecule, the MIC ([4]; Streptococcus pneumoniae, ATCC49619 QC strain, read-out: MIC Strep. Pneumoniae ATCC49619 QC strain) was 0.03 to 0.06 µg/mL (≈ 0.0409 to 0.0818 µM) and the “MIC Strep. Pneumoniae AUCC 488 penR” value [5] was 8 to 16 µg/mL.
With “(3aS,4R,7R,9R,10R,11R,13R,15R,15aR)-1-[2-(diethylamino)ethyl]-10{[(2S,3R,4S,6R)-4-(dimethylamino)-3-hydroxy-6-methyloxan-2-yl]oxy}-4-ethyl-3a,7,9,11,13,15-hexamethyl-11-{[(2E)-3-(quinolin-3-yl)prop-2-en-1-yl]oxy}-tetradecahydro-1H-oxacyclotetradeca[4,3-d][1,3]oxazole-2,6,8,14-tetrone [Compound 13A]” the “MIC Strep. Pneumoniae AUCC 483 penS, macR cMLS” value [1] was 0.12 to 0.25 µg/mL, the “MIC Strep. Pneumoniae AUCC 489 penR, macR cMLS” value [2] was 0.12 to 0.25 µg/mL and the IC50 [6, 7] was 1.2 µM. The “CYP3A4 inhibition in comparison” value [6] was “lower IC50 inhibition of CYP3A4 inhibition”, the “MIC Strep. Pneumoniae AUCC 479 penS, macS” value [3] was 0.008 to 0.015 µg/mL and the “MIC Strep. Pneumoniae ATCC49619 QC strain” value [4] was 0.015 to 0.06 µg/mL. For the same molecule, the “MIC Strep. Pneumoniae AUCC 488 penR” value [5] was 0.12 to 0.25 µg/mL.
“(3aS,4R,7R,9R,10R,11R,13R,15R,15aR)-1-[3-(azetidin-1-yl)propyl]-10-{[(2S,3R,4S,6R)-4-(dimethylamino)-3-hydroxy-6-methyloxan-2-yl]oxy}-4-ethyl-3a,7,9,11,13,15-hexamethyl-11-{[(2E)-3-(quinolin-3-yl)prop-2-en-1-yl]oxy}-tetradecahydro-1H-oxacyclotetradeca[4,3-d][1,3]oxazole-2,6,8,14-tetrone [Compound 13M]” was tested, and the “MIC Strep. Pneumoniae AUCC 483 penS, macR cMLS” value [1] was 0.25 to 0.5 µg/mL, the “MIC Strep. Pneumoniae AUCC 489 penR, macR cMLS” value [2] was 0.25 to 0.5 µg/mL and the IC50 [6, 8] was 10.3 µM. The “CYP3A4 inhibition in comparison” value [6] was “lower IC50 inhibition of CYP3A4 inhibition”, the “MIC Strep. Pneumoniae AUCC 479 penS, macS” value [3] was 0.015 to 0.03 µg/mL and the “MIC Strep. Pneumoniae ATCC49619 QC strain” value [4] was 0.03 to 0.06 µg/mL. The “MIC Strep. Pneumoniae AUCC 488 penR” value [5] was 0.5 to 1 µg/mL.
In the case of “(3aS,4R,7R,9R,10R,11R,13R,15R,15aR)-10-{[(2S,3R,4S,6R)-4-(dimethylamino)-3-hydroxy-6-methyloxan-2-yl]oxy}-1-[2-(dimethylamino)ethyl]-4-ethyl-3a,7,9,11,13,15-hexamethyl-11-{[(2E)-3-(quinolin-3-yl)prop-2-en-1-yl]oxy}-tetradecahydro-1H-oxacyclotetradeca[4,3-d][1,3]oxazole-2,6,8,14-tetrone [Compound 13F, reference compound]”, the “MIC Strep. Pneumoniae AUCC 483 penS, macR cMLS” value [1] is reported as 0.25 to 0.5 µg/mL, the “MIC Strep. Pneumoniae AUCC 489 penR, macR cMLS” value [2] is reported as 0.12 to 0.25 µg/mL and the IC50 [6, 7] is reported as 1.1 µM. For the same molecule, the “MIC Strep. Pneumoniae AUCC 479 penS, macS” value [3] was 0.0015 µg/mL, the “MIC Strep. Pneumoniae ATCC49619 QC strain” value [4] was 0.015 to 0.06 µg/mL and the “MIC Strep. Pneumoniae AUCC 488 penR” value [5] was 0.25 µg/mL.
